Measured values reported in PMC6408838, “Bioassay-guided isolation and identification of gametocytocidal compounds from Artemisia afra (Asteraceae)” (Malaria Journal, 2019).
Converted amounts (≈) assume the structure as drawn. “And” between values parts separate entries of the source, which are not always exact repeats. Identical values can stand only once. Like-named read-outs stand apart in the source and are kept apart here.

Tests used:
[1] = test system: late-stage gametocytes of Plasmodium falciparum (NF54 strain); assay: pLDH assay, late-stage gametocyte viability; type: cell-based; details: 72 + 72 h pLDH assay; for IC50: Plasmodium falciparum, NF54, 72 h
Method: (§1) The chloroquine-sensitive P. falciparum (NF54 strain) was cultured as described by […] et al. […] Gametocytogenesis initiation, induction and gametocyte culturing was done as described by Reader et al.. […] Both methylene blue (MB) and artemisinin (ART) was used as gametocytocidal drug controls and chloroquine for asexual drug control. Assay data were normalized against untreated Plasmodium parasites and HepG2 cell controls. […] Data were analysed on Microsoft Excel and sigmoidal dose-response curves were plotted using GraphPad Prism (v5). […] Statistical analysis was carried out on GraphPad Prism (v5) using unpaired Student-t test with a level of significance of P < 0.05.

[2] = test system: intra-erythrocytic asexual P. falciparum (NF54 strain) parasites; assay: pLDH assay, intra-erythrocytic asexual parasites; type: cell-based, Plasmodium falciparum; details: 1% parasitaemia; for IC50 value, Asexual stages: 72 h, n = 2; for IC50: Plasmodium falciparum, NF54, 72 h, n = 2, read-out: IC50 value, Asexual stages (converted)
Method: as §1

[3] = test system: early-stage gametocytes (> 85% stage II–III) of P. falciparum (NF54 strain); assay: pLDH assay, early-stage gametocyte viability; type: cell-based, Plasmodium falciparum; details: n = 3; for IC50 value, Early stage gametocytes: 1–2% gametocytaemia; for IC50: Plasmodium falciparum, NF54, 1–2% gametocytaemia
Method: as §1

[4] = test system: HepG2 cells; assay: LDH leakage cytotoxicity assay; type: cell-based; details: for cytotoxicity (toxicity): HepG2, at 20 µg/ml; for In vitro cytotoxicity range: HepG2, concentrations of 2.5, 5, 10, and 20 µg/ml
Method: (§2) Cytotoxicity assays were assessed on the HepG2 cell line (20,000 cells/well) as previously described. […] was as used as cytotoxic positive control. Assay data were normalized against untreated Plasmodium parasites and HepG2 cell controls. […] Data were analysed on Microsoft Excel and sigmoidal dose-response curves were plotted using GraphPad Prism (v5). Unless otherwise stated, all data have been expressed as mean ± SEM (n ≥ 2, carried out in three technical repeats).

[5] = LDH leakage cytotoxicity assay; type: cell-based; details: human, HepG2 cells; HepG2, LDH leakage, positive control, n = 3
Method: as §2

[6] = test system: mature, stage-V gametocytes (> 90% stage V); set-up: method as in PMID 26749441; details: > 90% stage V gametocytes; cited from earlier work
[7] = 1–2% gametocytaemia, n = 3, read-out: IC50 value, Late stage gametocytes
[8] = unpaired assays, n = 1, technical triplicate, 10-fold serial dilution, read-out: IC50, late-stage gametocytes (drug controls)

IC50 value, Asexual stages [2] [µg/mL]	IC50 [2]	SMILES	IC50 value, Late stage gametocytes ([1]; 1–2% gametocytaemia, n = 3) [µg/mL]	IC50 [1, 7]	IC50 value, Early stage gametocytes [3] [µg/mL]	IC50 [3] [µM]	cytotoxicity (toxicity) [4] [%]	In vitro cytotoxicity range [4]	IC50 [1, 8] [µM]	other results
3.8 ± 1.2 (≈ 11.3 µM)	11.3 µM	C=C1C(=O)O[C@H]2[C@H]1[C@@H](OC(C)=O)C[C@@](C)(O)[C@@]13O[C@@H]1[C@@H]1O[C@]1(C)[C@H]23 [Compound 2, yomogiartemin]	5.3	< 10 µg/mL and 15.8 µM	4.4 ± 0.3 (≈ 13.1 µM)	13.1	< 10	0.40–8.35%	–	IC50 value, Asexual stages ([2]; listed as yomogiartemin): < 10 µg/mL; IC50 value, Early stage gametocytes ([3]; listed as yomogiartemin): < 10 µg/mL
–	–	CC[C@H]1CN2CCc3cc(OC)c(OC)cc3[C@@H]2C[C@@H]1C[C@H]1NCCc2cc(OC)c(OC)cc21 [Emetine, reference compound]	–	–	–	–	–	–	–	cytotoxicity ([4]; HepG2, 100 µM, positive control): > 50%; EC50 [5]: 4.7 µg/mL (≈ 9.78 µM)
–	–	C[C@@H]1CC[C@H]2[C@@H](C)C(=O)O[C@@H]3O[C@@]4(C)CC[C@@H]1[C@]32OO4 [artemisinin, reference compound]	–	–	–	–	–	–	0.057	IC50 [6]: > 12.5 µM
–	–	CN(C)c1ccc2nc3ccc(=[N+](C)C)cc-3sc2c1 [Methylene blue, methylene blue, reference compound]	–	–	–	–	–	–	0.031	–
6.0 (≈ 18.7 µM)	< 10 µg/mL and 18.7 µM	C=C1C(=O)O[C@H]2C1[C@@H](OC(C)=O)CC(=C)[C@]1(O)C=C[C@@](C)(O)[C@H]21 (stereo partly drawn) [Compound 1, 1α,4α-dihydroxybishopsolicepolide]	2	6.3 µM	5.6 ± 0.2 (≈ 17.5 µM)	17.5	< 10	0.03–9.47%	–	IC50 value, Late stage gametocytes ([1]; 1–2% gametocytaemia, n = 3, listed as 1α,4α-dihydroxybishopsolicepolide): < 10 µg/mL
